Measurements published in patent US9999616B2 (ZENITH EPIGENETICS LTD., priority 2013, dated 2018).

Biological target: Brd4 bromodomain 1 (BRD4(1)) (Homo sapiens, UniProt O60885)
Experiment: Inhibition of tetra-acetylated histone H4 binding to Brd4 bromodomain 1, measured by FRET (HTRF)
Parameters: made in house; host or cells: E. coli BL21(DE3)
Details: 2 h at room temperature
Method: Proteins were cloned and overexpressed with a N-terminal 6×His tag, then purified by nickel affinity followed by size exclusion chromatography. Briefly, E. coli BL21(DE3) cells were transformed with a recombinant expression vector encoding N-terminally Nickel affinity tagged bromodomains from Brd2, Brd3, Brd4. Cell cultures were incubated at 37° C. with shaking to the appropriate density and induced overnight with IPTG. The supernatant of lysed cells was loaded onto Ni-IDA column for purification. Eluted protein was pooled, concentrated and further purified by size exclusion chromatography. Fractions representing monomeric protein were pooled, concentrated, aliquoted, and frozen at −80° C. for use in subsequent experiments.
Binding of tetra-acetylated histone H4 and BET bromodomains was confirmed by a Homogenous Time Resolved Fluorescence Resonance Energy Transfer (HTRF®) method. N-terminally His-tagged bromodomains (200 nM) and biotinylated tetra-acetylated histone H4 peptide (25-50 nM, Millipore) were incubated in the presence of Europium Cryptate-labeled streptavidin (Cisbio Cat. #610SAKLB) and XL665-labeled monoclonal anti-His antibody (Cisbio Cat. #61HISXLB) in a white 96 well microtiter plate (Greiner). For inhibition assays, serially diluted test compound was added to these reactions in a 0.2% final concentration of DMSO. Duplicate wells were used for each concentration tested. Final buffer concentrations were 30 mM HEPES pH 7.4, 30 mM NaCl, 0.3 mM CHAPS, 20 mM phosphate pH 7.0, 320 mM KF, 0.08% BSA. After a 2 h incubation at room temperature, fluorescence was measured at 665 and 620 nm with a SynergyH4 plate reader (Biotek). The binding inhibitory activity was shown by a decrease in 665 nm relative to 620 nm fluorescence. IC50 values were determined from a dose response curve.

Row | SMILES | IC50
1 | Cc1nc2cc(-c3c(C)noc3C)cc(-c3c(C)noc3C)c2o1 [Example Compound 101, 5,7-bis(3,5-dimethylisoxazol-4-yl)-2-methylbenzo[d]oxazole] | ≤ 0.3 µM
2 | COc1ccccc1S(=O)(=O)Nc1cc(-c2c(C)noc2C)cc2[nH]cnc12 [Example Compound 102, N-(6-(3,5-dimethylisoxazol-4-yl)-1H-benzo[d]imidazol-4-yl)-2-methoxybenzenesulfonamide] | 0.3 to 3 µM
3 | Cc1nc2c(-c3cccc4cccnc34)cc(-c3c(C)noc3C)cc2[nH]1 [Example Compound 111, 3,5-dimethyl-4-(2-methyl-4-(quinolin-8-yl)-1H-benzo[d]imidazol-6-yl)isoxazole] | 0.3 to 3 µM
4 | Cc1nc2c(-c3ncsc3C)cc(-c3c(C)noc3C)cc2[nH]1 [Example Compound 113, 3,5-dimethyl-4-(2-methyl-4-(5-methyl-thiazol-4-yl)-1H-benzo[d]imidazol-6-yl)isoxazole] | 0.3 to 3 µM
5 | Cc1nc2c(-c3cn(C)nc3C(F)(F)F)cc(-c3c(C)noc3C)cc2[nH]1 [Example Compound 115, 3,5-dimethyl-4-(2-methyl-4-(1-methyl-3-(trifluoro-methyl)-1H-pyrazol-4-yl)-1H-benzo[d]imidazol-6-yl)isoxazole] | 0.3 to 3 µM
6 | Cc1noc(C)c1-c1cc(-c2c(C)noc2C)c2nc(N(C)C)[nH]c2c1 [Example Compound 116, 4,6-bis(3,5-dimethyl-isoxazol-4-yl)-N,N-dimethyl-1H-benzo[d] imidazol-2-amine] | 0.3 to 3 µM
7 | Cc1nc2c(N3CCCCC3=O)cc(-c3c(C)noc3C)cc2[nH]1 [Example Compound 122, 1-(6-(3,5-dimethylisoxazol-4-yl)-2-methyl-1H-benzo[d]imidazol-4-yl)piperidin-2-one] | 0.3 to 3 µM
8 | Cc1nc2c(-c3cn(C)nc3C)cc(-c3cn(C)nc3C)cc2[nH]1 [Example Compound 133, 4,6-bis(1,3-dimethyl-1H-pyrazol-4-yl)-2-methyl-1H-benzo[d] imidazole] | 3 to 30 µM
9 | Cc1nc2c(-c3ccnn3C)cc(-c3ccnn3C)cc2[nH]1 [Example Compound 134, 2-methyl-4,6-bis(1-methyl-1H-pyrazol-5-yl)-1H-benzo[d] imidazole] | 0.3 to 3 µM
10 | Cc1noc(C)c1-c1cc(-c2c(C)noc2C)c2n[nH]c(=O)n2c1 [Example Compound 149, 6,8-bis(3,5-dimethyl-isoxazol-4-yl)-[1,2,4] triazolo[4,3-a] pyridin-3(2H)-one] | 3 to 30 µM
11 | Cc1noc(C)c1-c1cc(-c2c(C)noc2C)c2nccnc2c1 [Example Compound 159, 4,4′-(quinoxaline-5,7-diyl)bis(3,5-dimethylisoxazole)] | 0.3 to 3 µM

Now from value to compound:

Row | IC50 | SMILES
12 | 0.3 to 3 µM | Cc1nc2c(-c3c(C)cnn3C)cc(-c3c(C)cnn3C)cc2[nH]1 [Example Compound 167, 4,6-bis(1,4-dimethyl-1H-pyrazol-5-yl)-2-methyl-1H-benzo[d] imidazole]
13 | 3 to 30 µM | Cc1nc2c(-c3sc(C)nc3C)cc(-c3sc(C)nc3C)cc2[nH]1 [Example Compound 168, 5,5′-(2-methyl-1H-benzo[d]imidazole-4,6-diyl) bis(2,4-dimethylthiazole)]
14 | 0.3 to 3 µM | Cc1nc2c(-c3c(C)noc3C)cc(-c3c(C)noc3C)nc2[nH]1 [Example Compound 176, 4,4′-(2-methyl-3H-imidazo[4,5-b]pyridine-5,7-diyl)bis(3,5-dimethylisoxazole)]
15 | ≤ 0.3 µM | CSc1nc2cc(-c3c(C)noc3C)cc(-c3c(C)nn(C)c3C)c2n1C [Example Compound 191, 3,5-dimethyl-4-(1-methyl-2-(methylthio)-7-(1,3,5-trimethyl-1H-pyrazol-4-yl)-1H-benzo[d]imidazol-5-yl)isoxazole]
16 | ≤ 0.3 µM | Cc1ccc(C#N)cc1-c1cc(-c2c(C)noc2C)cc2[nH]c(N3CCOCC3)nc12 [Example Compound 193, 3-(6-(3,5-dimethyl-isoxazol-4-yl)-2-morpholino-1H-benzo[d]imidazol-4-yl)-4-methyl benzonitrile]
